Results reported in ChEMBL document CHEMBL4842347, “Structure-activity relationship and biochemical evaluation of novel fibroblast activation protein and prolyl endopeptidase inhibitors with α-ketoamide warheads” (Eur J Med Chem, 2021).
The source made the active and inactive calls. The rule behind the calls is not given here.

What was measured:
[1] = test system: HepG2; assay: Cytotoxicity against human HepG2 cells assessed as reduction in cell viability incubated for 72 hrs measured by […]-based colorimetric assay; assay type: functional
[2] = Inhibition of PREP (unknown origin) using fluorogenic substrate by spectrometric assay; set-up: species or system Homo sapiens
[3] = Metabolic stability in human plasma incubated for 2 hrs by LC/MS-MS analysis; assay type: ADME, cell-free
[4] = test system: CCRF-CEM; assay: Cytotoxicity against human CCRF-CEM cells assessed as reduction in cell viability incubated for 72 hrs measured by […]-based colorimetric assay; assay type: functional
[5] = test system: HeLa; assay: Cytotoxicity against human HeLa cells assessed as reduction in cell viability incubated for 72 hrs measured by […]-based colorimetric assay; assay type: functional
[6] = test system: HL-60; assay: Cytotoxicity against human HL-60 cells assessed as reduction in cell viability incubated for 72 hrs measured by […]-based colorimetric assay; assay type: functional
[7] = biological target: Dipeptidyl peptidase 4 (Homo sapiens, UniProt P27487); assay: Inhibition of SF-tagged DPP4 (unknown origin) expressed in Drosophila S2 cells using fluorogenic substrate by spectrometric analysis; assay type: cell-based
Dipeptidyl peptidase 4, sequence (P27487 whole entry): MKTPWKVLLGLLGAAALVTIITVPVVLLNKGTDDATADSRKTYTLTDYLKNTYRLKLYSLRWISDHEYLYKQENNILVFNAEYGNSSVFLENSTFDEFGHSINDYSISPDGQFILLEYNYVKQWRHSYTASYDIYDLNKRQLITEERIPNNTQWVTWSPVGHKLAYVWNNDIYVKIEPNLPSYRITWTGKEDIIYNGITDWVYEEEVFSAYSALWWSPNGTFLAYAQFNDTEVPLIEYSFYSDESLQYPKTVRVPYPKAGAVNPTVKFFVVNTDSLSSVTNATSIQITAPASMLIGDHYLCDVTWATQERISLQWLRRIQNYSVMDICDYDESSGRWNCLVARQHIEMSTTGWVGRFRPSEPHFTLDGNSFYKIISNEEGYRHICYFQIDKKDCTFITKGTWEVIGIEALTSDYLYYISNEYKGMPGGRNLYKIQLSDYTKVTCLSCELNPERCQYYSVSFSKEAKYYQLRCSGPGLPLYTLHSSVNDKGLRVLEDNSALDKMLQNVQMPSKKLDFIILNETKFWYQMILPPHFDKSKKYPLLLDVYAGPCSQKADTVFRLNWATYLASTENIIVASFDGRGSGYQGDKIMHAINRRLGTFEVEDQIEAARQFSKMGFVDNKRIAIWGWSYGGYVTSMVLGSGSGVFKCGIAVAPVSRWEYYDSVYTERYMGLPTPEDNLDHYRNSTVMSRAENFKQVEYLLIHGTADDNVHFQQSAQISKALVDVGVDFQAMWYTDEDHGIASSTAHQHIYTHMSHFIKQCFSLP

[8] = Drug degradation in human plasma measured up to 1 min incubated for 2 hrs by LC/MS-MS analysis; assay type: ADME, cell-free
[9] = Drug degradation in mouse liver microsomes measured up to 1 min incubated for 2 hrs by LC/MS-MS analysis; assay type: ADME, Microsome

COc1ccc(CNC(=O)C(=O)[C@@H]2CCCN2C(=O)CNC(=O)c2ccnc3ccccc23)cc1OC
Activity [1]: inactive | IC50 [2]: 0.24 nM | Stabilty [3]: Stable | Activity [4]: inactive | Activity [5]: inactive | Activity [6]: inactive

COC(=O)[C@H](CCC(=O)O)NC(=O)CNC(=O)C(=O)[C@@H]1CCCN1C(=O)CNC(=O)c1ccnc2ccccc12
Activity [1]: inactive | IC50 [2]: 1.3 nM | Activity [4]: inactive | Activity [5]: inactive | Activity [6]: inactive | IC50 [7]: > 4000 nM

CCCCCNC(=O)C(=O)[C@@H]1CCCN1C(=O)CNC(=O)c1ccnc2ccccc12
Activity [1]: inactive | IC50 [2]: 0.4 nM | Activity [4]: inactive | Activity [5]: inactive | Activity [6]: inactive

O=C(NCC(=O)N1CCOCC1)C(=O)[C@@H]1CCCN1C(=O)CNC(=O)c1ccnc2ccccc12
Activity [1]: inactive | IC50 [2]: 0.49 nM | Activity [4]: inactive | Activity [5]: inactive | Activity [6]: inactive | IC50 [7]: > 4000 nM

COC(=O)[C@H](CCCCNC(=O)OCc1ccccc1)NC(=O)CNC(=O)C(=O)[C@@H]1CCCN1C(=O)CNC(=O)c1ccnc2ccccc12
Activity [1]: inactive | IC50 [2]: 0.29 nM | Activity [4]: inactive | Activity [5]: inactive | Activity [6]: inactive | IC50 [7]: > 4000 nM

Cc1ccc(CNC(=O)C(=O)[C@@H]2CCCN2C(=O)CNC(=O)c2ccnc3ccccc23)c(C)c1
Activity [1]: inactive | IC50 [2]: 0.66 nM | Activity [4]: inactive | Activity [5]: inactive | Activity [6]: inactive | IC50 [7]: > 4000 nM

O=C(NCc1ccc(F)cc1)C(=O)[C@@H]1CCCN1C(=O)CNC(=O)c1ccnc2ccccc12
Activity [1]: inactive | IC50 [2]: 0.26 nM | Activity [4]: inactive | Activity [5]: inactive | Activity [6]: inactive | IC50 [7]: > 3000 nM

CC(C)(C)NC(=O)CNC(=O)C(=O)[C@@H]1CCCN1C(=O)CNC(=O)c1ccnc2ccccc12
Activity [1]: inactive | IC50 [2]: 0.73 nM | Activity [4]: inactive | Activity [5]: inactive | Activity [6]: inactive | IC50 [7]: > 4000 nM

N#C[C@@H]1CCCN1C(=O)CNC(=O)c1ccnc2ccccc12
IC50 [2]: 320 nM | IC50 [7]: > 4000 nM

CC(C)(C)OC(=O)CNC(=O)C(=O)[C@@H]1CCCN1C(=O)CNC(=O)c1ccnc2ccccc12
Activity [1]: inactive | IC50 [2]: 0.53 nM | Activity [4]: inactive | Activity [5]: inactive | Activity [6]: inactive | IC50 [7]: > 3000 nM

COC(=O)[C@H](Cc1ccccc1)NC(=O)CNC(=O)C(=O)[C@@H]1CCCN1C(=O)CNC(=O)c1ccnc2ccccc12
Stabilty [8]: Unstable | Activity [1]: inactive | IC50 [2]: 0.36 nM | Stabilty [3]: Stable | Activity [4]: inactive | Activity [5]: inactive | Stabilty [9]: Unstable | Activity [6]: inactive | IC50 [7]: > 4000 nM

O=C(NCc1ccccc1)C(=O)[C@@H]1CCCN1C(=O)CNC(=O)c1ccnc2ccccc12
Activity [1]: inactive | Stabilty [3]: Stable | Activity [4]: inactive | Activity [5]: inactive | Stabilty [9]: Unstable | Activity [6]: inactive

COC(=O)[C@H](CCC(=O)OCc1ccccc1)NC(=O)CNC(=O)C(=O)[C@@H]1CCCN1C(=O)CNC(=O)c1ccnc2ccccc12
Stabilty [8]: Unstable | Activity [1]: inactive | Stabilty [3]: Stable | Activity [4]: inactive | Activity [5]: inactive | Stabilty [9]: Unstable | Activity [6]: inactive

COc1ccc(CCNC(=O)C(=O)[C@@H]2CCCN2C(=O)CNC(=O)c2ccnc3ccccc23)cc1OC
Activity [1]: inactive | IC50 [2]: 0.43 nM | Stabilty [3]: Stable | Activity [4]: inactive | Activity [5]: inactive | Stabilty [9]: Unstable | Activity [6]: inactive
